Values quoted from earlier work as cited in US7390503B1, “Ondansetron orally disintegrating tablets” (Barr Laboratories, Inc., priority 2003, dated 2008).
Structures can show the parent of a compound that is named as a salt. Where two headings read alike, the source gives them in different places.

Details: general statement, no test described

Row | SMILES | solubility in water | solubility in water (hydrochloride dihydrate)
1 | Cc1nccn1CC1CCc2c(c3ccccc3n2C)C1=O (centres unmarked) [ondansetron in free base form, 1,2,3,9-tetrahydro-9-methyl-3-[(2-methyl-1H-imidazol-1-yl)methyl]-4H-carbazol-4-one] | soluble in water | –
2 | Cc1nccn1CC1CCc2c(c3ccccc3n2C)C1=O (centres unmarked) [Ondansetron hydrochloride dihydrate] | – | freely soluble in water
